In PubChem BioAssay AID248 (DTP/NCI, 2004):
Where “and” joins values, the source holds several entries; their conditions need not be identical. Equal values may be shown once. Toxic doses and inconclusive results are not listed. No stated cut-off is given here; in the data, active means T/C of 150% or more; inactive means T/C below 125%. Square brackets hold non-standard residues; d marks the D form. Peptide text beside a SMILES is read from it. * marks the point of attachment. ξ: configuration not given here. Pentanoyl = CCCCC(=O)*; ξP = O=C(O)C1CCCN1; OtBu = CC(C)(C)O*

Test system: L1210 leukemia ip in BDF1 mice, survival T/C
Test: NCI In Vivo Anticancer Drug Screen. Data for tumor model L1210 Leukemia (intraperitoneal) in B6D2F1 (BDF1) mice
Settings: endpoint: mean survival time, higher = longer survival
Method in brief: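 Mice bearing the transplanted tumor received compound or vehicle. Survival of the treated group was divided by that of the vehicle-treated control group to give the ratio.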

[1] = dose: 100.0 mg/kg/injection, schedule: Q01DX001 (ip), vehicle: saline with Tween-80
[2] = dose: 200.0 mg/kg/injection, schedule: Q01DX001 (ip), vehicle: saline with Tween-80
[3] = dose: 400.0 mg/kg/injection, schedule: Q01DX001 (ip), vehicle: saline with Tween-80
[4] = dose: 100.0 mg/kg/injection, schedule: Q01DX009 (ip), vehicle: Klucel (hydroxypropylcellulose) (HPC)
[5] = dose: 100.0 mg/kg/injection, schedule: Q04DX003 (ip), vehicle: Klucel (hydroxypropylcellulose) (HPC)
[6] = dose: 200.0 mg/kg/injection, schedule: Q01DX009 (ip), vehicle: Klucel (hydroxypropylcellulose) (HPC)
[7] = dose: 200.0 mg/kg/injection, schedule: Q04DX003 (ip), vehicle: Klucel (hydroxypropylcellulose) (HPC)
[8] = dose: 400.0 mg/kg/injection, schedule: Q04DX003 (ip), vehicle: Klucel (hydroxypropylcellulose) (HPC)
[9] = dose: 50.0 mg/kg/injection, schedule: Q01DX009 (ip), vehicle: saline
[10] = dose: 100.0 mg/kg/injection, schedule: Q01DX009 (ip), vehicle: saline
[11] = dose: 50.0 mg/kg/injection, schedule: Q01DX001 (ip), vehicle: saline
[12] = dose: 100.0 mg/kg/injection, schedule: Q01DX001 (ip), vehicle: saline
[13] = dose: 200.0 mg/kg/injection, schedule: Q01DX001 (ip), vehicle: saline
[14] = dose: 100.0 mg/kg/injection, schedule: Q04DX003 (ip), vehicle: saline with Tween-80
[15] = dose: 200.0 mg/kg/injection, schedule: Q04DX003 (ip), vehicle: saline with Tween-80
[16] = dose: 50.0 mg/kg/injection, schedule: Q01DX009 (ip), vehicle: saline with Tween-80
[17] = dose: 100.0 mg/kg/injection, schedule: Q01DX009 (ip), vehicle: saline with Tween-80
[18] = dose: 200.0 mg/kg/injection, schedule: Q01DX009 (ip), vehicle: saline with Tween-80
[19] = dose: 100.0 mg/kg/injection, schedule: Q04DX002 (ip), vehicle: Klucel (hydroxypropylcellulose) (HPC)
[20] = dose: 200.0 mg/kg/injection, schedule: Q04DX002 (ip), vehicle: Klucel (hydroxypropylcellulose) (HPC)
[21] = dose: 400.0 mg/kg/injection, schedule: Q01DX009 (ip), vehicle: Klucel (hydroxypropylcellulose) (HPC)
[22] = dose: 100.0 mg/kg/injection, schedule: Q01DX001 (ip), vehicle: carboxymethylcellulose (CMC)
[23] = dose: 200.0 mg/kg/injection, schedule: Q01DX001 (ip), vehicle: carboxymethylcellulose (CMC)
[24] = dose: 400.0 mg/kg/injection, schedule: Q01DX001 (ip), vehicle: carboxymethylcellulose (CMC)
[25] = dose: 400.0 mg/kg/injection, schedule: Q04DX002 (ip), vehicle: Klucel (hydroxypropylcellulose) (HPC)

Measured: T/C

O=C(C(Cl)Cl)N(O)c1ccccc1OCc1ccccc1
inactive: [1] 98 % of control | [2] 112 % of control | [3] 98 % of control

CN(C)C(=O)Nc1ccc([N+](=O)[O-])cc1[N+](=O)[O-]
inactive: [1] 96 % of control | [2] 89 % of control | [3] 94 % of control | dose: 800.0 mg/kg/injection, schedule: Q04DX002 (ip), vehicle: saline with Tween-80 104 % of control and 107 % of control

O=C(NNC(=O)OCc1ccccc1)OCc1ccccc1
inactive: [4] 104 % of control | [5] 97 % of control | [6] 113 % of control | [7] 97 % of control | [8] 97 % of control

CC1CN(c2ccc([N+](=O)[O-])cc2)C(C)CN1 (stereo not drawn)
inactive: dose: 6.25 mg/kg/injection, schedule: Q01DX009 (ip), vehicle: saline 102 % of control | dose: 12.5 mg/kg/injection, schedule: Q01DX009 (ip), vehicle: saline 91 % of control | dose: 25.0 mg/kg/injection, schedule: Q01DX009 (ip), vehicle: saline 102 % of control | [9] 97 % of control and 101 % of control | [10] 88 % of control | dose: 100.0 mg/kg/injection, schedule: Q04DX003 (ip), vehicle: saline 98 % of control | dose: 200.0 mg/kg/injection, schedule: Q04DX003 (ip), vehicle: saline 100 % of control

CC(=O)OCC1OC(N2CCc3cc([N+](=O)[O-])ccc32)C(OC(C)=O)C(OC(C)=O)C1OC(C)=O (stereo not drawn)
inactive: [11] 97 % of control | [12] 96 % of control | [13] 96 % of control

CC(=O)OCC(=O)[C@@]12OC(C)(C)O[C@@H]1C[C@H]1[C@@H]3CC(C=O)=C4C=C(OCCCl)CC[C@]4(C)[C@@]3(F)[C@@H](O)C[C@@]12C
inactive: [4] 95 % of control

COc1cc(C=C(C#N)C#N)ccc1O
inactive: dose: 12.5 mg/kg/injection, schedule: Q01DX009 (ip), vehicle: Klucel (hydroxypropylcellulose) (HPC) 103 % of control | dose: 25.0 mg/kg/injection, schedule: Q01DX009 (ip), vehicle: Klucel (hydroxypropylcellulose) (HPC) 97 % of control

O=P(CCO)(c1ccccc1)c1ccccc1
inactive: [14] 112 % of control | [15] 101 % of control

[NH-]S(=O)(=O)O.[NH-]S(=O)(=O)O.[NH2-].[NH2-].[Pt+4]
inactive: dose: 10.0 mg/kg/injection, schedule: Q01DX009 (ip), vehicle: saline with Tween-80 100 % of control | dose: 20.0 mg/kg/injection, schedule: Q01DX009 (ip), vehicle: saline with Tween-80 90 % of control | dose: 40.0 mg/kg/injection, schedule: Q01DX009 (ip), vehicle: saline with Tween-80 100 % of control

O=S(c1ccccc1)C(Cl)C1(O)CCCCC1 (stereo not drawn)
inactive: dose: 100.0 mg/kg/injection, schedule: Q03DX002 (ip), vehicle: saline with Tween-80 98 % of control | dose: 200.0 mg/kg/injection, schedule: Q03DX002 (ip), vehicle: saline with Tween-80 98 % of control | dose: 400.0 mg/kg/injection, schedule: Q03DX002 (ip), vehicle: saline with Tween-80 102 % of control

CN(C)/N=C(\CBr)c1ccc([N+](=O)[O-])cc1
inactive: [16] 96 % of control | [17] 96 % of control | [18] 89 % of control

CCCN1CCC(C(=O)CC)(c2cccc(O)c2)CC1
inactive: [19] 106 % of control | [20] 106 % of control

CCOC(=O)c1ccc(=O)n(C(C)C)c1
inactive: [4] 104 % of control | [6] 98 % of control | [21] 102 % of control

CC(=O)OCC(C)(COC(C)=O)[N+](=O)[O-]
inactive: [5] 95 % of control | [7] 92 % of control | [8] 97 % of control

CCCCCCCCCCCCCCCCOc1ccc(C(SC)=[N+]2CCCCC2)cc1OC
inactive: [5] 98 % of control | [7] 102 % of control | [8] 102 % of control

C=CC(=O)OCC(C)([N+](=O)[O-])[N+](=O)[O-]
inactive: [16] 103 % of control | [17] 97 % of control | [14] 103 % of control | [15] 96 % of control

CCCC1=NNC(=O)C1(Br)Br
inactive: dose: 10.0 mg/kg/injection, schedule: Q01DX001 (ip), vehicle: carboxymethylcellulose (CMC) 97 % of control | dose: 20.0 mg/kg/injection, schedule: Q01DX001 (ip), vehicle: carboxymethylcellulose (CMC) 91 % of control | dose: 40.0 mg/kg/injection, schedule: Q01DX001 (ip), vehicle: carboxymethylcellulose (CMC) 92 % of control | dose: 80.0 mg/kg/injection, schedule: Q01DX001 (ip), vehicle: carboxymethylcellulose (CMC) 97 % of control

NC(=O)c1ccc(F)cc1
inactive: [22] 95 % of control | [23] 104 % of control | [24] 98 % of control

O=C(Nc1ccc(Cl)c(Cl)c1)Nc1cccc2nsnc12
inactive: [4] 92 % of control | [6] 92 % of control | [21] 92 % of control

N#CC(OC(OC(C#N)c1ccccc1)c1ccccc1)c1ccccc1 (stereo not drawn)
inactive: [16] 93 % of control | [17] 93 % of control | [18] 90 % of control

O=[N+]([O-])c1ccc(OC(=S)Oc2ccc([N+](=O)[O-])cc2)cc1
inactive: dose: 50.0 mg/kg/injection, schedule: Q01DX001 (ip), vehicle: carboxymethylcellulose (CMC) 103 % of control | [22] 105 % of control | [23] 97 % of control | [24] 100 % of control

O=[N+]([O-])C=C([SH2+])[SH2+].O=[N+]([O-])C=C([SH2+])[SH2+].[Pt+2].c1ccc(C[P+](c2ccccc2)(c2ccccc2)c2ccccc2)cc1
inactive: [11] 95 % of control | [12] 110 % of control | [13] 96 % of control

COC(=O)Cn1nnc2ccccc21
inactive: [9] 97 % of control | [10] 105 % of control | dose: 200.0 mg/kg/injection, schedule: Q01DX009 (ip), vehicle: saline 87 % of control

CCc1nc(N)ncc1-c1ccc([N+](=O)[O-])cc1O
inactive: [19] 97 % of control | [20] 100 % of control | [25] 90 % of control

CCCCC(=O)NCC(=O)N1CCCC1C(=O)OC(C)(C)C (stereo not drawn) (Pentanoyl-Gly-[ξP]-OtBu)
inactive: [19] 105 % of control | [20] 101 % of control | [25] 101 % of control

CCOC(=O)CCC(NC(=O)Cc1ccc(NC(=O)C(F)(F)F)cc1)C(=O)OCC (stereo not drawn)
inactive: [4] 105 % of control | [6] 96 % of control | [21] 98 % of control

O=P(c1ccccc1)(N1CC1)N1CC1
inactive: dose: 7.5 mg/kg/injection, schedule: Q04DX003 (ip), vehicle: saline 100 % of control | dose: 15.0 mg/kg/injection, schedule: Q01DX001 (ip), vehicle: saline 102 % of control | dose: 15.0 mg/kg/injection, schedule: Q04DX003 (ip), vehicle: saline 95 % of control | dose: 30.0 mg/kg/injection, schedule: Q01DX001 (ip), vehicle: saline 107 % of control | dose: 30.0 mg/kg/injection, schedule: Q04DX003 (ip), vehicle: saline 98 % of control
